Test results reported in patent US20110318738A1, “IDENTIFICATION AND REGULATION OF A NOVEL DNA DEMETHYLASE SYSTEM” (University of Utah Research Foundation, priority 2008, published 2011).

Legend:
apc mutants (72 hpf) = assay: MeDIP-qPCR for various genes in apc mutants; assay type: in vivo, zebrafish; settings: apc mutant embryos treated with RA; FIG. 11D
Protocol: (§1) Expression of genes are first normalized to 28S, and then to the control embryo mRNA/28S ratio, valued as 1. […] In panels A-C, expression of genes are normalized first to 28S (A-B) or 18S (C) and then to the control sample values as 1.
This procedure was described in Weber et al., 2007. Briefly, Dynabeads (conjugated with sheep anti-mouse secondary antibody, Invitrogen) were incubated with 10 μg of 5MeC antibody (Eurogentec) for 2 hrs, washed, and then incubated with 4 μg of sonicated DNA (300 bp-1000 bp fragments) overnight Immunoprecipitated DNA was amplified using for whole genome amplification kit (Sigma Aldrich). Following amplification, 2 μg of amplified DNA was labeled with Cy5, and 2 μg of input DNA was labeled with Cy3 (Bio labs). Samples were competitively hybridized to 244K oligonucleotide promoter arrays (Agilent Inc).

HT29 and DLD1 = assay: Quantitative RT-PCR for AID, MBD4 and GADD45α in RA responsive colon carcinoma cell lines; assay type: cell-based; settings: human colon cancer cell lines, ATRA 5 μM each day for two days; FIG. 11C
[1] = system: apc^mcr zebrafish embryos; assay: Quantitative RT-PCR in apc mutant embryos after drug treatment; assay type: in vivo; settings: for expression of aid, gadd45α and mbd4: all-trans retinoic acid 1 μM or NS-398 10 μM, FIG. 11A
Protocol: Quantitative RT-PCR primers for amplification of zebrafish rdh1l (Nadauld et al., 2005), human DHRS9 (Jette et al., 2004) 28S rRNA (Eisinger et al., 2006), and h18S rRNA (Delaunay et al., 2000) were described previously, and are (hereby incorporated by reference in its entirety into this application). A template-free negative control was included in each experiment.
(§2) RNA from embryos or human adenoma tissues was isolated using Trizol (Invitrogen). cDNA library was prepared using Superscript III kit (Invitrogen). RT-PCR was performed on a Roche light cycler.

[2] = system: apc^mcr zebrafish embryos; assay: Whole mount in situ hybridization in apc mutant embryos; settings: for gadd45α expression (% of embryos) / aid expression (% of embryos): apc^wt + DMSO 94%; for gadd45α expression (% of embryos): apc^mcr + DMSO 9%; for aid expression (% of embryos): apc^mcr + DMSO 17%; for mbd4 expression (% of embryos): apc^wt + DMSO 95%, apc^mcr + DMSO 3%; for irbp (% of embryos): apc^sib 96%
wild type embryos = assay: Quantitative RT-PCR in RA deficiency models; assay type: in vivo, zebrafish; settings: DEAB treated wild type embryos; FIG. 11B
Protocol: as §1, §2

[3] = system: DLD1, SW480, and HT29 cells; assay: Quantitative PCR measuring DHRS9 (RDHL) expression in colon cancer cell lines; assay type: cell-based, human; settings: pargyline 3 mM, FIG. 14B
zebrafish embryos = assay: Whole mount in situ hybridization for neuronal markers in morpholino-injected embryos; assay type: in vivo; settings: morpholino injected at single-cell stage, 24 hpf; for Sox-2: embryos showing positive staining for the marker: Control Mo 97%; for Neurogenin-1: embryos showing positive staining for the marker: Control Mo 100%
Protocol: Wild-type zebrafish (Tuebingen strain) were maintained in a 14 hr:10 hr light:dark cycle in a Z-Mod at 28.5° C. Embryos were injected at single-cell stage and then grown in a 28.5° C. incubator. Morpholinos were obtained from Gene-tools LLC Ltd. For these experiments, morpholino sequences were designed against the following:
Whole mount in situ hybridization was performed as described earlier in Rai et al., 2006 with digoxigenin (Roche) labeled probes against neurogenin-1 and sox-2.
To address whether AID/Apobec enzymes, Gadd45, or zebrafish Mbd4 have a role in the control of DNA methylation during normal zebrafish development, a subset of the enzyme family members were knocked down (by morpholino injection) and their impact on development was examined. Either AID, Gadd45α, or Mbd4 knockdown caused the loss of neurons at 24 hpf, shown by the absence of pro-neuronal markers such as neurogenin-1 or sox-2. […] As neurons form in mice lacking Mbd4 (or AID), zebrafish may rely more on these proteins for neurogenesis than do mice, or alternatively, neurogenesis in zebrafish may be more sensitive to misregulation of DNA methylation levels. […] The percentage listed depicts embryos showing positive staining for the marker indicated.

[4] = apc^mcr embryos, Table 6, apc^mcr 0%
[5] = apc^mcr embryos, Table 6, apc^sib 100%, apc^mcr 0%

Question: Which results are given for `CC1=C(/C=C/C(C)=C/C=C/C(C)=C/C(=O)O)C(C)(C)CCC1` [ATRA, all-trans retinoic acid]?
Answer: DNA methylation on the panel of genes implicated in intestinal differentiation and proliferation (apc mutants (72 hpf)): reversed the loss of DNA methylation; expression of the demethylase genes (HT29 and DLD1): suppressed expression; Cebpβ expression ([1]; APC mutants, RA treatment, FIG. 12A): down regulated; dnmt1 expression ([1]; apc mutants, RA treatment): did not restore; expression of aid, gadd45α and mbd4 ([1]; apc mutants): greatly reduced; expression of pou5f1 ([1]; apc^mcr mutant embryos, ATRA 1 μM, FIG. 12A): reduced the expression; gadd45α expression (% of embryos) ([2]; apc^mcr embryos, Table 4): 91%; aid expression (% of embryos) ([2]; apc^mcr embryos, Table 4): 85%; mbd4 expression (% of embryos) ([2]; apc^mcr embryos, Table 4): 65%; dnmt1 expression (% of embryos) ([2]; apc^mcr embryos, Table 4, apc^wt + DMSO 97%, apc^mcr + DMSO 11%): 89%; expression of aldh1a2 ([2]; apc^mcr mutant, rdh1l morphant or nls mutant zebrafish treated with RA): decreased the expression

Question: Which results are given for `CS(=O)(=O)Nc1ccc([N+](=O)[O-])cc1OC1CCCCC1` [Cox-2 inh, NS-398]?
Answer: expression of aid, gadd45α and mbd4 ([1]; apc mutants): little effect; gadd45α expression (% of embryos) ([2]; apc^mcr embryos, Table 4): 8%; aid expression (% of embryos) ([2]; apc^mcr embryos, Table 4): 20%; mbd4 expression (% of embryos) ([2]; apc^mcr embryos, Table 4): 9%%

Question: Which “expression of the demethylase genes” value (wild type embryos) does the source give for `CCN(CC)c1ccc(C=O)cc1` [DEAB, 4-(diethylamino) benzaldehyde] here?
Answer: Its value is “increased expression”.

Question: How did the “intestinal differentiation marked by fabp2 expression” value ([2]; apc^mcr embryos treated with exogenous RAL) turn out when `CC1=C(/C=C/C(C)=C/C=C/C(C)=C/C=O)C(C)(C)CCC1` [RAL] was run?
Answer: The value was “partially restored”.

Question: And the “fabp2 (% of embryos)” value ([2]; apc^mcr embryos, Table 5, apc^wt + Control Mo 99%, mutant + Control Mo 3%)?
Answer: Its value is 59%.

Question: How did the DHRS9 expression [3] turn out when `C#CCN(C)Cc1ccccc1` [pargyline] was run?
Answer: Its DHRS9 expression is “upregulated”.

Question: And the “expression of rdh1l” value ([1]; apc^mcr zebrafish embryos, pargyline 3 mM, FIG. 15A)?
Answer: Its value is “rescued expression”.

Question: What about the “expression of fabp2” value ([2]; apc^mcr zebrafish embryos, pargyline 3 mM) of the same compound?
Answer: Its value is “rescued expression”.

Question: Which results are given for “AID Mo: morpholino against AID, 5′-GTTTTGTTTTCGCTTACCTGTCCAG-3′ (SEQ ID No. 1) (all phosphorodiamidate morpholino (PMO))”?
Answer: Sox-2: embryos showing positive staining for the marker (zebrafish embryos): 13% (n = 38); Neurogenin-1: embryos showing positive staining for the marker (zebrafish embryos): 12% (n = 50)

Question: Which results are given for “Corest mo: morpholino 5′-CCTTCTCTAACATTGCGGGCATCTT-3′ (SEQ ID NO. 19) (all phosphorodiamidate morpholino (PMO))”?
Answer: irbp (% of embryos) [2, 4]: 11%; fabp2 (% of embryos) [2, 5]: 79%

Question: For “Gadd45α Mo: morpholino against Gadd45α, 5′-ATATAAAAACATACCTTTCCGTTGC-3′ (SEQ ID No. 4) (all phosphorodiamidate morpholino (PMO))”, which “Sox-2: embryos showing positive staining for the marker” value (zebrafish embryos) is on record?
Answer: The value was 33% (n = 48).

Question: And the “Neurogenin-1: embryos showing positive staining for the marker” value (zebrafish embryos)?
Answer: Its value is 11% (n = 52).

Question: Which results are given for “Groucho2 mo: morpholino 5′-GCCCTGTGGATACATCTTGAAATGT-3′ (SEQ ID NO. 17) (all phosphorodiamidate morpholino (PMO))”?
Answer: irbp (% of embryos) [2, 4]: 5%; fabp2 (% of embryos) [2, 5]: 95%; rdh1l (% of embryos) [2, 5]: 83%; trypsin (% of embryos) [2, 5]: 86%

Question: With “Lsd1 mo: morpholino 5′-GGTCTGACTTCTTATTGGACAACAT-3′ (SEQ ID NO. 18) (all phosphorodiamidate morpholino (PMO))” as the compound, how does the “irbp (% of embryos)” value [2, 4] read?
Answer: Its value is 8%.

Question: What about the “fabp2 (% of embryos)” value [2, 5] of the same compound?
Answer: The value was 83%.

Question: Which “Sox-2: embryos showing positive staining for the marker” value (zebrafish embryos) does the source give for “Mbd4 Mo: morpholino against zMbd4, 5′-AGAGAGAAACACACCTGCTCGCTGC-3′ (SEQ ID No. 8) (all phosphorodiamidate morpholino (PMO))” here?
Answer: The value was 15% (n = 53).

Question: And the “Neurogenin-1: embryos showing positive staining for the marker” value (zebrafish embryos)?
Answer: Its value is 14% (n = 43).

Question: With “Pitx2 Mo: morpholino 5′-TTTATCAAACTTACTCGGACTCTGG-3′ (SEQ ID NO. 15) (all phosphorodiamidate morpholino (PMO))” as the compound, how does the “cyclinD1 (% of embryos)” value ([2]; apc^mcr embryos, Table 5, apc^wt + Control Mo 96%, mutant + Control Mo 17%) read?
Answer: The value was 90%.

Question: What about the “Pcna (% of embryos)” value ([2]; apc^mcr embryos, Table 5, apc^wt + Control Mo 97%, mutant + Control Mo 10%) of the same compound?
Answer: The value was 85%.

Question: How did the “gadd45α expression (% of embryos)” value ([2]; apc^mcr embryos, Table 4) turn out when “Pou5f1 Mo: morpholino 5′-CGCTCTCTCCGTCATCTTTCCGCTA-3′ (SEQ ID NO. 14) (all phosphorodiamidate morpholino (PMO))” was run?
Answer: The value was 83%.

Question: And the “aid expression (% of embryos)” value ([2]; apc^mcr embryos, Table 4)?
Answer: Its value is 81%.

Question: And the “mbd4 expression (% of embryos)” value ([2]; apc^mcr embryos, Table 4)?
Answer: Its value is 67%.
